Legend:
[1] = target: T1, rhesus GCGR (Macaca mulatta, UniProt A0A1D5QZY8); test: Inhibition of glucagon-stimulated cAMP production in CHO cells expressing rhesus GCGR; format: cell-based
T1 construct: expressed in transfected cells
Method: Transfected Chinese hamster ovary (CHO) cell lines were acquired and maintained as previously described [17], [20]. These included separate cell lines stably expressing human GCGR (hGCGR), mouse GCGR, rhesus GGCR, glucose-dependent insulinotropic peptide receptor (GIPR), GLP-1 receptor (GLP-1R), pituitary adenylate cyclase-activating polypeptide receptor type 1 (PAC1R), and vasoactive adenylate cyclase-activating polypeptide receptor type 2 (VPAC2R). […] Functional antagonism was assayed by measuring the production of cAMP in intact CHO cells stimulated by agonists specific for their cognate receptors (i.e., glucagon for GCGR-expressing cell lines, GIP for the GIPR-expressing line, etc.).

[2] = system: primary human hepatocytes; test: Glucagon-stimulated glycogenolysis in primary human hepatocytes; format: cell-based; settings: 1 h
Method: Figure 1 GRA1 inhibits glucagon-mediated glycogenolysis in vitro and ex-vivo. (A) The chemical structure of GRA1. (B) Dose-dependent inhibition of glucagon-stimulated glycogenolysis in human hepatocytes. The cells were pretreated for 3 h with 200 nM insulin and then challenged with 2 nM glucagon with vehicle (Veh, medium with 1% DMSO) or 0.3–10 µM GRA1. Glycogen content was measured after incubating for 1 h. *p<0.05 and **p<0.01 vs. glucagon+vehicle alone. (C) Inhibition of glucagon-stimulated glycogenolysis in perfused liver prepared from the hGCGR mouse. Livers were perfused with Ringers solution containing 6.7 mM [2-^13C]pyruvate while ^13C content (indicative of accumulated [^13C]glycogen) was monitored dynamically by nuclear magnetic resonance imaging. At time = −22 min, 0.1–3.0 uM GRA1 or vehicle was added to the perfusate; 50 pM glucagon or vehicle was added at time 0. The data are means ±SEM.
Transfected Chinese hamster ovary (CHO) cell lines were acquired and maintained as previously described, [20]. These included separate cell lines stably expressing human GCGR (hGCGR), mouse GCGR, rhesus GGCR, glucose-dependent insulinotropic peptide receptor (GIPR), GLP-1 receptor (GLP-1R), pituitary adenylate cyclase-activating polypeptide receptor type 1 (PAC1R), and vasoactive adenylate cyclase-activating polypeptide receptor type 2 (VPAC2R). […]

[3] = system: rhesus monkey liver; test: Hepatic gene expression (Affymetrix microarray of liver biopsies) in rhesus monkeys; format: in vivo; settings: 30 mg/kg twice daily
Method: Hepatic gene expression was assessed by liver biopsy in adult rhesus monkeys that had been treated twice daily for 1 and 6 days with 30 mg/kg GRA1 or vehicle. The compound was administered to the animals orally in yogurt or a similar treat while they were housed in their home cages. The animals were fasted for approximately 16 h prior to performing liver biopsies laparoscopically, under anesthesia. On biopsy days, animals received their morning doses of GRA1 2 h before the biopsies were performed.
Total RNA was processed for Affymetrix microarray analysis as previously described. Briefly, total RNA was isolated from frozen tissues after homogenizing in TRIzol reagent (Invitrogen, Carlsbad, CA) and processed using RNeasy kits (QIAGEN, Valencia, CA) according to manufacturers' instructions. Sample amplification, labeling, and microarray processing were performed by the Covance Genomics Laboratory in Seattle, WA using the Affymetrix catalog Rhesus array (Affymetrix, Santa Clara, CA). One-way ANOVA analyses were performed with Matlab (The Mathworks, Natick, MA). Probesets had to pass a pre-filter of Affymetrix MAS5 present call p value <0.05 in >50% of the samples to qualify for further analysis. Differentially expressed genes (probesets) were selected with 1.2-fold change and ANOVA p value <0.05.

[4] = Pharmacokinetics / plasma GRA1 concentrations in hGCGR mice; format: in vivo, hGCGR mouse; settings: single oral dose 2 mg/kg

T1 sequence (A0A1D5QZY8 27-491): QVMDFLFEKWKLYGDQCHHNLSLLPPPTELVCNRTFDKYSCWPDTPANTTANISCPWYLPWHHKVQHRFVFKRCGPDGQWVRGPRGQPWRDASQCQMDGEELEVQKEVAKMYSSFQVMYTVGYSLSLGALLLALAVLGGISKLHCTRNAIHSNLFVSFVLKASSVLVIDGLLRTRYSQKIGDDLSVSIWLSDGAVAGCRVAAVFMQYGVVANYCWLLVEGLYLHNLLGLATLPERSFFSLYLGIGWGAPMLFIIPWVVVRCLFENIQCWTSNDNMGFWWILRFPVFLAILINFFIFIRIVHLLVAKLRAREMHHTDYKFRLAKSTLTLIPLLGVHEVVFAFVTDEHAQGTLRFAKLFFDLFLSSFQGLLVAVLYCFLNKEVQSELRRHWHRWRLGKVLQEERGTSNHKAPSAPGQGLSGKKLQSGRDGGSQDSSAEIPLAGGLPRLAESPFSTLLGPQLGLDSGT

With `COc1ccc2cc(-c3cc(-c4cc(C(F)(F)F)ccc4F)nn3[C@@H](C)c3ccc(C(=O)NCCC(=O)O)cc3)ccc2c1` [GRA1, N-[4-((1S)-1-{3-(2-fluoro-5-trifluoromethylphenyl)-5-[6-methoxynaphth-2-yl]-1H-pyrazol-1-yl}ethyl)benzoyl]-β-alanine] the IC50 [1] was 15 nM, the “Inhibition of glucagon-induced glycogen loss” value ([2]; 10 µM GRA1, 2 nM glucagon) was “completely prevented” and the inhibition at 0.3 µM ([2]; Homo sapiens, Hepatocyte, 0.3 µM GRA1, 2 nM glucagon, read-out: Inhibition of glucagon-induced glycogen loss) was ~50%. For the same compound, the “AASS (aminoadipate-semialdehyde synthase) hepatic expression, fold difference vs vehicle” value ([3]; Day 1) was −2.0 fold, the “AGXT2L1 hepatic expression, fold difference vs vehicle” value ([3]; Day 1) was −1.5 fold and the “ASL (argininosuccinate lyase) hepatic expression, fold difference vs vehicle” value ([3]; Day 1) was −1.5 fold. The “BCKDHB hepatic expression, fold difference vs vehicle” value ([3]; Day 1) was −1.4 fold, the “DDC (dopa decarboxylase) hepatic expression, fold difference vs vehicle” value ([3]; Day 1) was −1.4 fold and the “FH (fumarate hydratase) hepatic expression, fold difference vs vehicle” value ([3]; Day 1) was −1.2 fold. For the same compound, the “GCKR (glucokinase regulator) hepatic expression, fold difference vs vehicle” value ([3]; Day 1) was 1.5 fold, the “GPT (alanine aminotransferase) hepatic expression, fold difference vs vehicle” value ([3]; Day 1) was −1.5 fold and the “HPD (4-hydroxyphenylpyruvate dioxygenase) hepatic expression, fold difference vs vehicle” value ([3]; Day 1) was −1.3 fold. For the same compound, the “KMO (kynurenine 3-monooxygenase) hepatic expression, fold difference vs vehicle” value ([3]; Day 1) was −1.3 fold, the “OAT (ornithine aminotransferase) hepatic expression, fold difference vs vehicle” value ([3]; Day 1) was −1.9 fold and the “SDS (serine dehydratase) hepatic expression, fold difference vs vehicle” value ([3]; Day 1) was −8.8 fold. The “SDSL (serine dehydratase-like) hepatic expression, fold difference vs vehicle” value ([3]; Day 1) was −1.6 fold, the “SLC7A2 hepatic expression, fold difference vs vehicle” value ([3]; Day 1) was −1.8 fold and the “TAT (tyrosine aminotransferase) hepatic expression, fold difference vs vehicle” value ([3]; Day 1) was −1.8 fold. For the same compound, the “ARG1 (arginase, liver) hepatic expression, fold difference vs vehicle” value ([3]; Day 1 (ns)) was −1.1 fold, the “GCK (glucokinase) hepatic expression, fold difference vs vehicle” value ([3]; Day 1 (ns)) was 2.4 fold and the “GLS2 (glutaminase 2) hepatic expression, fold difference vs vehicle” value ([3]; Day 1 (ns)) was −1.3 fold. The “GOT1 hepatic expression, fold difference vs vehicle” value ([3]; Day 1 (ns)) was −1.5 fold, the “PAH (phenylalanine hydroxylase) hepatic expression, fold difference vs vehicle” value ([3]; Day 1 (ns)) was −1.5 fold and the “SLC1A2 hepatic expression, fold difference vs vehicle” value ([3]; Day 1 (ns)) was −1.6 fold. For the same compound, the “AASS (aminoadipate-semialdehyde synthase) hepatic expression, fold difference vs vehicle” value ([3]; Day 6) was −3.0 fold, the “AGXT2L1 hepatic expression, fold difference vs vehicle” value ([3]; Day 6) was −1.8 fold and the “ARG1 (arginase, liver) hepatic expression, fold difference vs vehicle” value ([3]; Day 6) was −1.3 fold. The “ASL (argininosuccinate lyase) hepatic expression, fold difference vs vehicle” value ([3]; Day 6) was −1.6 fold, the “BCKDHB hepatic expression, fold difference vs vehicle” value ([3]; Day 6) was −1.3 fold and the “FH (fumarate hydratase) hepatic expression, fold difference vs vehicle” value ([3]; Day 6) was −1.2 fold. The “GCK (glucokinase) hepatic expression, fold difference vs vehicle” value ([3]; Day 6) was 5.4 fold, the “GCKR (glucokinase regulator) hepatic expression, fold difference vs vehicle” value ([3]; Day 6) was 1.3 fold and the “GLS2 (glutaminase 2) hepatic expression, fold difference vs vehicle” value ([3]; Day 6) was −1.6 fold. The “GOT1 hepatic expression, fold difference vs vehicle” value ([3]; Day 6) was −2.1 fold, the “GPT (alanine aminotransferase) hepatic expression, fold difference vs vehicle” value ([3]; Day 6) was −1.3 fold and the “HPD (4-hydroxyphenylpyruvate dioxygenase) hepatic expression, fold difference vs vehicle” value ([3]; Day 6) was −1.2 fold. For the same compound, the “KMO (kynurenine 3-monooxygenase) hepatic expression, fold difference vs vehicle” value ([3]; Day 6) was −1.5 fold, the “OAT (ornithine aminotransferase) hepatic expression, fold difference vs vehicle” value ([3]; Day 6) was −3.6 fold and the “PAH (phenylalanine hydroxylase) hepatic expression, fold difference vs vehicle” value ([3]; Day 6) was −2.1 fold. The “SDS (serine dehydratase) hepatic expression, fold difference vs vehicle” value ([3]; Day 6) was −27.1 fold, the “SLC1A2 hepatic expression, fold difference vs vehicle” value ([3]; Day 6) was −7.6 fold and the “SLC7A2 hepatic expression, fold difference vs vehicle” value ([3]; Day 6) was −2.4 fold. The “DDC (dopa decarboxylase) hepatic expression, fold difference vs vehicle” value ([3]; Day 6 (ns)) was −1.1 fold, the “SDSL (serine dehydratase-like) hepatic expression, fold difference vs vehicle” value ([3]; Day 6 (ns)) was −1.5 fold and the “TAT (tyrosine aminotransferase) hepatic expression, fold difference vs vehicle” value ([3]; Day 6 (ns)) was −1.7 fold. The half-life ([4]; mouse, plasma, read-out: Apparent plasma terminal half-life (converted)) was 6.8 h, the “Mean rate of absorption from the gut” value [4] was 69% and the Route of excretion [4] was “nearly all absorbed drug was subsequently excreted unchanged via the bile”.
